Test results taken from ChEMBL document CHEMBL1201862, “PubChem BioAssay data set” (2004).
Values belong to the compound of their own block, whether it stands above or below them. Calls of active or inactive are those of the source.

Assays:
[1] = HIV-1 Vif–A3G interaction blockers – biochemical, TR-FRET, GST-Vif 1-94, biotin-A3G peptide, dose response retest, primary screen (AID 1117319); assay type: functional;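 also: TR-FRET signal of purified GST-Vif binding a biotinylated A3G peptide; inhibitors lower the FRET signal by blocking Vif and A3G binding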
Genome polyprotein = Genome polyprotein (dengue virus type 2, UniProt P29990); experiment: flavivirus cap methylation enzyme inhibition – biochemical, confirmation dose response, primary screen (AID 588689); assay type: functional
Genome polyprotein, sequence (P29990 2492-3391 limits assumed): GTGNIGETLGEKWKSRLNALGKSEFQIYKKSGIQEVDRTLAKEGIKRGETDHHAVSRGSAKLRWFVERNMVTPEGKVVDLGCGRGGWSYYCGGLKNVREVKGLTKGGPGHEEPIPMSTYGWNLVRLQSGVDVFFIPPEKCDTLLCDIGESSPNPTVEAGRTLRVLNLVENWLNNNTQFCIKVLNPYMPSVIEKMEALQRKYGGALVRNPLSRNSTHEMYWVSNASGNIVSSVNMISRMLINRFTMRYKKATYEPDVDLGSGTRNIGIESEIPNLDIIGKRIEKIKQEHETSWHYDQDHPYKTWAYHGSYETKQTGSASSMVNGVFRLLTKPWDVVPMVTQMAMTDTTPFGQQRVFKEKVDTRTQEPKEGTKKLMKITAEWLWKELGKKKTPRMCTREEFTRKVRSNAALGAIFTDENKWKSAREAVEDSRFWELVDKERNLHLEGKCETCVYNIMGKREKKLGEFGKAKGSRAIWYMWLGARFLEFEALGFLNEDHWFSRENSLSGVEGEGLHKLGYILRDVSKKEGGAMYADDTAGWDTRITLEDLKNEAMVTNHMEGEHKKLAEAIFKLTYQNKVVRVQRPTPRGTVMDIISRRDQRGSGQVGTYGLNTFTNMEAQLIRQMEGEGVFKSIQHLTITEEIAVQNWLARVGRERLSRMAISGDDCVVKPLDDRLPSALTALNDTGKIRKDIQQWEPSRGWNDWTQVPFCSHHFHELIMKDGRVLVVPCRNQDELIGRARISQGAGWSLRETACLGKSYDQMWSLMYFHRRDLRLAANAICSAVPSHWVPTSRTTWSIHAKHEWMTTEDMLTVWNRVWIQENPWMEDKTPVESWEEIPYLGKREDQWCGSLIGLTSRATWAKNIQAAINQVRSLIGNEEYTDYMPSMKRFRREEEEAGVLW

[2] = viability loss in THP-1 monocytes – THP-1 cells, cytotoxicity control for Vif-APOBEC3G degradation inhibitor project, dose response (AID 1117359); assay type: functional; details: THP-1
[3] = target: T1, Apoptotic protease-activating factor 1 (Homo sapiens, UniProt O14727); assay type: functional
T1 sequence (O14727 whole entry): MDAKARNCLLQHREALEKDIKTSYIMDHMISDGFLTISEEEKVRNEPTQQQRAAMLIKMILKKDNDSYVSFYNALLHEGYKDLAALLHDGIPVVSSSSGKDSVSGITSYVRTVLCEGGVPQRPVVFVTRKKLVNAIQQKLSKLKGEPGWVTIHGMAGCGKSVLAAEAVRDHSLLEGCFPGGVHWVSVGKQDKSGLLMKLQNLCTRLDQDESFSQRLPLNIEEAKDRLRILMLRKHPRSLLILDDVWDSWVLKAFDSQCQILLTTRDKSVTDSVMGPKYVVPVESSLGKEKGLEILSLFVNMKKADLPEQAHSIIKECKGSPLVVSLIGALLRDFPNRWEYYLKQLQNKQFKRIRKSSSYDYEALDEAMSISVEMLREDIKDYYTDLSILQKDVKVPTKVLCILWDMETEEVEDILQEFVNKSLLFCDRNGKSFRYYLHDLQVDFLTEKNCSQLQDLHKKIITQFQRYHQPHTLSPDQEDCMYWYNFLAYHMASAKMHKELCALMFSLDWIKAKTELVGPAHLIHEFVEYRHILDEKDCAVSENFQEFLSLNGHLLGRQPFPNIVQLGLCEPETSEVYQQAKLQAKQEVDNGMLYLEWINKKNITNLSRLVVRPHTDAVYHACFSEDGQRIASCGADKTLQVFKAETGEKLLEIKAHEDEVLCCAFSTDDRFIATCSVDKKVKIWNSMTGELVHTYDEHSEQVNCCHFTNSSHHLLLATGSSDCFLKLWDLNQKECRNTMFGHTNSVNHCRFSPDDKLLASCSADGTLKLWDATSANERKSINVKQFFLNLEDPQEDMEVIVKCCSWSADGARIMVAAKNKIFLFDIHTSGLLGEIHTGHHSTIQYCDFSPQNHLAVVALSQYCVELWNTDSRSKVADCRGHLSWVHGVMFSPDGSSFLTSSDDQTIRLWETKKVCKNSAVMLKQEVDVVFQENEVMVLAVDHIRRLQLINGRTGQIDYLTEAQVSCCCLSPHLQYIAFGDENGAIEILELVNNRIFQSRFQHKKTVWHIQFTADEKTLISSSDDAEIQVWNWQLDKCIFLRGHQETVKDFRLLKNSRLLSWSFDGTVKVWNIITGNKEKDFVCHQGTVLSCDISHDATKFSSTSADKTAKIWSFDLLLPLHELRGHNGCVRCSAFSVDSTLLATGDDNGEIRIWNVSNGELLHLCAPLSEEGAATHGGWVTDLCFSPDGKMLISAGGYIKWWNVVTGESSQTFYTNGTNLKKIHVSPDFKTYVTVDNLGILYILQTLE

Protein Tat = target: T2, Protein Tat (Human immunodeficiency virus type 1 group M subtype B (isolate HXB2)(HIV-1), UniProt P04608); assay type: functional;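 also: tat binding to TAR RNA read out by fluorescence polarization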
T2 sequence (P04608 whole entry): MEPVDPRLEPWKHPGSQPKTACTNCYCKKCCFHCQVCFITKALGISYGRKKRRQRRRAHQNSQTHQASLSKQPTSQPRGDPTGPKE

[4] = target: E3 ubiquitin-protein ligase Mdm2 (Homo sapiens, UniProt Q00987); experiment: MDM2-luc reporter signal enhancers, multi-concentration potency testing, MDM2 ubiquitin-protein ligase inhibitor program, whole-cell format, luminescence detection, 384-well microplate (AID 1394); assay type: functional;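 also: MDM2 E3 inhibitors raise luminescence so EC50 is for signal enhancement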
E3 ubiquitin-protein ligase Mdm2, sequence (Q00987 whole entry): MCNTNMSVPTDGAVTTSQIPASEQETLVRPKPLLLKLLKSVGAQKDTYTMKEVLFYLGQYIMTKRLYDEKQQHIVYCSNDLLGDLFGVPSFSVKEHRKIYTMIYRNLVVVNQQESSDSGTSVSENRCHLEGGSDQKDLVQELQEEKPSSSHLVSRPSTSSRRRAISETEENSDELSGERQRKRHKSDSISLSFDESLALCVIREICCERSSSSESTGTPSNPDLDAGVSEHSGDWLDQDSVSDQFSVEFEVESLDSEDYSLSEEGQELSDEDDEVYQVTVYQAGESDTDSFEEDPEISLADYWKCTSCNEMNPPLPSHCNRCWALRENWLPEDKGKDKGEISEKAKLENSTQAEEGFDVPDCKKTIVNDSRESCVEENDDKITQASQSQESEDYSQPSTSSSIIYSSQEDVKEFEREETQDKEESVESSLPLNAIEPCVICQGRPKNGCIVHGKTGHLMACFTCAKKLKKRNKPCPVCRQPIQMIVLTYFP

[5] = viability loss in human Jurkat cells – cell-based, luminescence, cytotoxicity control for P. falciparum gametocyte viability project, dose response (AID 1117277); assay type: functional;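 also: potency reflects loss of cellular ATP meaning fewer viable cells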
[6] = viability inhibitors of stage V gametocytes – luminescence, dose response (AID 1117278); assay type: functional, cell-based;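 also: gametocytes exposed to compound for 24 hours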
[7] = reduced cellular PGC1a acetyl-lysine signal – cell-based, cherry-picked samples, dose response (AID 720514); assay type: functional;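 also: potency may reflect raised or lowered acetylation signal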
[8] = A549 cell cytotoxicity, dose response, cytotoxicity control, plate reader, cherry-pick, antagonist series (AID 743412); assay type: functional, cell-based
[9] = blockade of melanocortin 4 receptor signaling – cell-based, plate reader, cherry pick, counter-screen for LGR2 antagonist project, dose response (AID 743444); assay type: functional;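 also: transfected HEK 293 cells stimulated with alpha-MSH peptide; potency of inhibitors of the alpha-MSH evoked signal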
[10] = blockers of bursicon-stimulated LGR2 cAMP reporter – cell-based, HEK293, CRE-luciferase reporter, cherry pick, set 2, dose response (AID 743343); assay type: functional;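 also: transfected cells were stimulated with diluted bursicon conditioned medium after compound addition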
[11] = toxicity toward HepG2 liver cells – cell-based, plate reader, cherry-pick, antagonist series, cytotoxicity control, dose response (AID 743416); assay type: functional
[12] = viability loss in HEK293 cells – cell-based, plate reader, cherry-picked samples, cytotoxicity control, dose response (AID 743446); assay type: functional
Kallikrein-7 = Kallikrein-7 (Homo sapiens, UniProt P49862); experiment: Fluorescence Intensity-based biochemical primary high throughput dose response assay to identify activators of kallikrein-7 (K7) zymogen.
Kallikrein-7, sequence (P49862 whole entry): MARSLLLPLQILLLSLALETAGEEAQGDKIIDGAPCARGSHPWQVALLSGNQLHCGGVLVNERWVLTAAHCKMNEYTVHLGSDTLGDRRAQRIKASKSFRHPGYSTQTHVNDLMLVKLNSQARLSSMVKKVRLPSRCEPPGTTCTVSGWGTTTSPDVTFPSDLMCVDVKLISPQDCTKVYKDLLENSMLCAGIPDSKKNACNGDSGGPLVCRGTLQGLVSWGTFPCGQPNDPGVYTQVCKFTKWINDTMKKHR

[13] = NIH-3T3 fibroblast cytotoxicity, dose response, cytotoxicity control, cell-based, fluorescence, Alamar Blue, secondary assay (AID 2327); assay type: functional;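 also: NIH-3T3 mouse fibroblasts cultured with fluconazole at 8 µg/mL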
[14] = fluconazole-exposed Candida albicans growth modulators – fluorescence, retest, confirmation (AID 2467); assay type: functional, cell-based
Caspase-6 = target: T3, Caspase-6 (Homo sapiens, UniProt P55212); experiment: inhibition of CASP6 peptide cleavage – biochemical, VEID-R110 fluorescence, cherry-pick, dose response (AID 720632)
T3 sequence (P55212 whole entry): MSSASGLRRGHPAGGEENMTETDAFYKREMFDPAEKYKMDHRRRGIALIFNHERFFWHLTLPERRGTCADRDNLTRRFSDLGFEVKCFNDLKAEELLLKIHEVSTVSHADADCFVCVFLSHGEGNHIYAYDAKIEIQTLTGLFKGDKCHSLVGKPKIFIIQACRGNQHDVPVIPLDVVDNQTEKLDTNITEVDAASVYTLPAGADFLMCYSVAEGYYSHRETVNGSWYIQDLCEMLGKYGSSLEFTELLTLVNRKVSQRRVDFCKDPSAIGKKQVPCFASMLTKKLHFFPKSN

[15] = viability loss in Vero cells – cytotoxicity control for Vif-APOBEC3G degradation inhibitor project, dose response (AID 1117358); assay type: functional; details: Vero
[16] = viability of PTEN-deleted HCT116 cells – cell-based, HCT116 PTEN knockout, dose response (AID 1047); assay type: functional;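 also: HCT116 colon tumor cells with PTEN knocked out; cells exposed to compound for 60 hours before readout; potency for loss of cell viability measured by luminescence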
[17] = viability of HCT116 lacking mutant beta-catenin – cell-based, human colon tumor, dose response (AID 1045); assay type: functional;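 also: HCT116 colon tumor cells with beta catenin knocked out; cells exposed to compound for 60 hours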
[18] = P. falciparum Dd2 growth inhibitors, dose response, SYBR Green, cherry-picked samples (AID 1159567); assay type: functional, cell-based
[19] = toxicity to human hepatoma HepG2 cells – cell-based, cherry-picked samples, cytotoxicity control, dose response (AID 1159577); assay type: functional
[20] = target: Disintegrin and metalloproteinase domain-containing protein 17 (Homo sapiens, UniProt P78536); experiment: inhibition of ADAM17 substrate cleavage – biochemical, quenched FRET substrate, counter-screen for ADAM10 exosite inhibitor project, dose response (AID 743253)
Disintegrin and metalloproteinase domain-containing protein 17, sequence (P78536 whole entry, the tested form may be a part): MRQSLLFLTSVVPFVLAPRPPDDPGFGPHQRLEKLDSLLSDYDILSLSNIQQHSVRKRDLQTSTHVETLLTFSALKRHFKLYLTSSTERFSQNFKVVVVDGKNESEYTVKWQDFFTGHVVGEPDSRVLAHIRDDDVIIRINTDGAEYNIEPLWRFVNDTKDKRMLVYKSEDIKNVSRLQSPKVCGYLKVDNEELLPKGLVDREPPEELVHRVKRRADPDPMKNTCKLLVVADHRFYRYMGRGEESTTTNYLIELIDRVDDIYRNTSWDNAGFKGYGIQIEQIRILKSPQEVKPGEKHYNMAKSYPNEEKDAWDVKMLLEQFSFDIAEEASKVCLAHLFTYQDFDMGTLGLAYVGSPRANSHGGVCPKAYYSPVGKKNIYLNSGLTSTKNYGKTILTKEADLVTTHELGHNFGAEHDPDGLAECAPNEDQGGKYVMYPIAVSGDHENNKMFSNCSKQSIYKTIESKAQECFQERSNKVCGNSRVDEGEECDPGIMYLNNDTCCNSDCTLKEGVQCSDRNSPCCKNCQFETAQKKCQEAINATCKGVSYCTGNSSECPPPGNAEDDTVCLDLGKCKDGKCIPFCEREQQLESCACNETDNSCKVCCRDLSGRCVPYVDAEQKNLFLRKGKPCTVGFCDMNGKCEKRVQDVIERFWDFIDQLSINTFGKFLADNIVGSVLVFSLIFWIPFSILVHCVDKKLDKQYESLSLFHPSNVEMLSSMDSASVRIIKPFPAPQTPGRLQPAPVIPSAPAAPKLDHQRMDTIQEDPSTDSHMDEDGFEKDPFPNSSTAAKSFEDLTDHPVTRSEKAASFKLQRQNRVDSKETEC

[21] = potency of ADAM10 substrate cleavage blockers – biochemical, QFRET, dose response (AID 743254);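 also: ADAM10 enzyme with the DM2 quenched FRET peptide as substrate; EDANS fluorescence gain as the protease cuts the substrate; inhibitor potency against ADAM10 proteolytic activity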
[22] = MITF: Counter assay: A375 proliferation Measured in Cell-Based System Using Plate Reader - 2084-03_Inhibitor_Dose_DryPowder_Activity_Set8.; assay type: functional; details: A-375
[23] = MITF Orthogonal Assay: SK-MEL-5 CTG Assay Measured in Cell-Based System Using Plate Reader - 2084-02_Inhibitor_Dose_DryPowder_Activity_Set7.; assay type: functional
[24] = inhibitors of TRPM1-promoter reporter in SK-MEL-5 – cell-based, luciferase, dry powder, set 8, MITF inhibitor project, dose response (AID 624430); assay type: functional
[25] = IC50 of insulin release inhibition, rat insulinoma INS-1E line, 5 mM glucose, cell-based (AID 1117331); assay type: functional
[26] = cytotoxicity toward HCT116 cells – cell-based, CellTiter-Glo luminescence, IC50, dose response (AID 1117332); assay type: functional; details: HCT-116
[27] = cytotoxicity toward HT-29 cells – cell-based, CellTiter-Glo luminescence, IC50, dose response (AID 1117330); assay type: functional
[28] = cytotoxicity toward Colo320 cells – cell-based, CellTiter-Glo luminescence, IC50, dose response (AID 1117334); assay type: functional; details: COLO 320
[29] = CellTiter-Glo luminescence survival assay, SW480 colon tumor line, concentration-response curve, half-maximal inhibitory concentration (AID 1117338); assay type: functional
[30] = RKO cell viability reduction, dose response, CellTiter-Glo luminescence (AID 1117322); assay type: functional
[31] = Reduced DLD-1 viability, concentration-response, CellTiter-Glo luminescence (AID 1117352); assay type: functional
[32] = SNU-C1 cell viability reduction, dose response, CellTiter-Glo luminescence (AID 1117323); assay type: functional, cell-based

IC50 [1]: > 100 µM (active)
SMILES: CC1=C(C(=O)NCc2ccco2)C2(CCC(C)CC2)OC1=O (centres undefined)

IC50 (Genome polyprotein): > 100 µM (active)
IC50 [3]: 27.5 µM (active)
IC50 (Protein Tat): 25.4 µM (inconclusive)
IC50 [1]: > 50.6 µM (active)
SMILES: CCc1ccc(CNc2ccc(O)cc2)cc1
CC50 [2]: 26.4 µM (active)

EC50 [4]: 8.93 µM (not active)
SMILES: Cc1ccccc1Nc1nnc(SCC2CCCCO2)s1 (centres undefined)

SMILES: CCOC(=O)C(C#N)C(c1cccnc1)c1c(C)n[nH]c1O (centres undefined)
IC50 [5]: > 83.3 µM (inactive)
IC50 [6]: > 109 µM (inactive)

SMILES: O=C(/C=C/c1cccs1)c1ccc(NC(=O)c2cccc(Br)c2)cc1
AC50 [7]: 28.9 µM (active)

SMILES: Cc1csc(CNc2ncnc3ccc(-c4ccoc4)cc23)c1
AC50 [8]: > 52 µM (inactive)
AC50 [9]: 0.489 µM (active)
AC50 [10]: 0.81 µM (active)
AC50 [11]: 27.8 µM (active)
AC50 [12]: 28.9 µM (active)

EC50 (Kallikrein-7): 86.4 µM (inactive)
SMILES: COc1ccc(-c2cc(C(=O)NC3CC3)c3ccccc3n2)cc1

SMILES: C=CCO/C(O)=C1\C(C)=NC(SCC(=O)NC(=O)OCC)=C(C#N)C1c1cccnc1 (centres undefined)
EC50 (Kallikrein-7): 4.56 µM (active)
EC50 [13]: > 150 µM (inactive)
EC50 [14]: 6.32 µM (active)

SMILES: CCOC(=O)c1c(C)oc2c1c(/C=N/Cc1ccccn1)c(O)c1ccccc12
AC50 (Caspase-6): 11 µM (active)
CC50 [15]: 34.4 µM (active)
EC50 [16]: 25 µM (active)
EC50 [17]: 26.4 µM (active)

SMILES: CCCc1c(-c2ccccc2F)ncn1CCc1ccccc1OC
AC50 [8]: 23.5 µM (active)
AC50 [9]: 17.4 µM (active)
AC50 [10]: 13.4 µM (active)
AC50 [11]: 23.6 µM (active)
AC50 [12]: 31.7 µM (active)

SMILES: Fc1ccc(-c2ccc([C@@H]3[C@@H]4CN(Cc5ccccc5)C[C@H]3N4)cc2)cc1
AC50 [7]: 14.3 µM (active)
AC50 [18]: 4.07 µM (active)
AC50 [19]: 8.83 µM (active)

IC50 [20]: > 69.5 µM (inactive)
IC50 [21]: > 69.5 µM (inactive)
SMILES: COc1cc(NC(=O)c2ccccc2)c(C)cc1NC(=O)CSc1nnc(-c2ccccc2F)n1-c1ccc(C)cc1

SMILES: CN1CCN(C2=C(Nc3ccc(F)cc3)C(=O)c3ccccc3C2=O)CC1
AC50 [22]: > 70 µM (inactive)
AC50 [23]: 12.1 µM (active)
AC50 [24]: 8.28 µM (active)

SMILES: CN(C)CC/C=C1\c2ccccc2Sc2ccc(Cl)cc21
IC50 [25]: > 33.3 µM (inactive)

SMILES: CC(C)(C)CC(C)(C)c1cc(Cc2cc(C(C)(C)CC(C)(C)C)cc(-n3nc4ccccc4n3)c2O)c(O)c(-n2nc3ccccc3n2)c1 [BISOCTRIZOLE]
IC50 [26]: > 20 µM (inactive)
IC50 [27]: > 20 µM (inactive)
IC50 [28]: > 20 µM (inactive)
IC50 [29]: > 20 µM (inactive)
IC50 [30]: > 20 µM (inactive)
IC50 [31]: > 20 µM (inactive)
IC50 [32]: > 20 µM (inactive)
